Test results from ChEMBL document CHEMBL1201862, “PubChem BioAssay data set” (2004).
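Dose response: 5 concentrations. Exposure: 48 h. Format: 96-well plates. Endpoint: linear interpolation; highest concentration if not reached. GI50 = concentration required for 50% inhibition of growth.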 Calls of active or inactive are those of the source. Rule as the data show it: active = GI50 up to about 1.1 µM and inactive = higher.

Key:
Experiment in all cases: NCI anticancer screen, dose series, 48 h
SR = tested on: SR
HCT-15 = tested on: HCT-15
IGROV-1 = tested on: IGROV-1
NCI-H460 = tested on: NCI-H460
786-0 = tested on: 786-0
OVCAR-3 = tested on: OVCAR-3
MCF7 = tested on: MCF7
MOLT-4 = tested on: MOLT-4
HCT-116 = tested on: HCT-116
Hs-578T = tested on: Hs-578T
SF-295 = tested on: SF-295
M14 = tested on: M14
SN12C = tested on: SN12C
SW-620 = tested on: SW-620
COLO 205 = tested on: COLO 205
HOP-92 = tested on: HOP-92
EKVX = tested on: EKVX
DU-145 = tested on: DU-145
HOP-62 = tested on: HOP-62

Row | Structure (SMILES) | GI50 (SR) | GI50 (HCT-15) [µM] | GI50 (IGROV-1) | GI50 (NCI-H460) | GI50 (786-0) | GI50 (OVCAR-3) | GI50 (MCF7) | GI50 (MOLT-4) | GI50 (HCT-116) | GI50 (Hs-578T) | GI50 (SF-295) | GI50 (M14) | GI50 (SN12C) | GI50 (SW-620) | GI50 (COLO 205) | GI50 (HOP-92) | GI50 (EKVX) | GI50 (DU-145) | GI50 (HOP-62)
1 | O=C(NN=C1CCCCC1)Nc1ccccc1Cl | 22.5 µM (inactive) | 39.6 | 26.5 µM (inactive) | 42.5 µM (inactive) | > 100 µM (inactive) | 16.4 µM (inactive) | 34.2 µM (inactive) | 47.8 µM (inactive) | 48.8 µM (inactive) | 32 µM (inactive) | 33.3 µM (inactive) | 29.8 µM (inactive) | 57.5 µM (inactive) | 43.8 µM (inactive) | 31.3 µM (inactive) | 23.6 µM (inactive) | 52.8 µM (inactive) | 86.1 µM (inactive) | –
2 | O=C1/C(=C\c2ccc([N+](=O)[O-])cc2)CS(=O)(=O)C/C1=C/c1ccc([N+](=O)[O-])cc1 | 0.03 µM (active) | 0.117 | 0.641 µM (active) | 0.515 µM (active) | 0.149 µM (active) | 0.141 µM (active) | 0.303 µM (active) | – | 0.288 µM (active) | 1.35 µM (inactive) | 1.74 µM (inactive) | 0.74 µM (active) | – | 0.262 µM (active) | 0.188 µM (active) | 1.91 µM (inactive) | 1.21 µM (inactive) | 2.92 µM (inactive) | 1.23 µM (inactive)
3 | COC(=O)C1=CS/C(=C2\S[C@@H]3[C@H](S2)[C@H]2C=C[C@@H]3C2)S1 | 3.4 µM (inactive) | 17.3 | 39.2 µM (inactive) | 34.9 µM (inactive) | 92 µM (inactive) | 33.2 µM (inactive) | 10.9 µM (inactive) | 5.19 µM (inactive) | 8.09 µM (inactive) | 81.3 µM (inactive) | 2.96 µM (inactive) | 48.3 µM (inactive) | > 100 µM (inactive) | 13.1 µM (inactive) | 32.8 µM (inactive) | 79.8 µM (inactive) | – | > 100 µM (inactive) | > 100 µM (inactive)
4 | O=C1/C(=C\c2cccc(Oc3ccccc3)c2)S(=O)(=O)C(c2ccccc2)N1Cc1ccccc1 (configuration not stated) | 14.9 µM (inactive) | 15.6 | – | 15.1 µM (inactive) | 19.6 µM (inactive) | 13.8 µM (inactive) | 39.1 µM (inactive) | 0.83 µM (active) | 31 µM (inactive) | 13.6 µM (inactive) | 55.8 µM (inactive) | 27.4 µM (inactive) | 26.6 µM (inactive) | 40.4 µM (inactive) | 27 µM (inactive) | 19.3 µM (inactive) | 25.8 µM (inactive) | 33 µM (inactive) | 26.5 µM (inactive)
5 | OC(c1cccnc1)C(F)(F)c1nc2ccccc2o1 (configuration not stated) | > 100 µM (inactive) | > 100 | > 100 µM (inactive) | > 100 µM (inactive) | > 100 µM (inactive) | – | > 100 µM (inactive) | > 100 µM (inactive) | > 100 µM (inactive) | > 100 µM (inactive) | – | – | – | > 100 µM (inactive) | > 100 µM (inactive) | > 100 µM (inactive) | > 100 µM (inactive) | 50.8 µM (inactive) | > 100 µM (inactive)
6 | O=C1C(N2CCCC2)=CC(=O)c2c(O)c(N3CCCC3)c(Cl)c(O)c21 | > 10 µM (inactive) | – | > 10 µM (inactive) | > 10 µM (inactive) | > 10 µM (inactive) | > 10 µM (inactive) | > 10 µM (inactive) | > 10 µM (inactive) | > 10 µM (inactive) | > 10 µM (inactive) | > 10 µM (inactive) | > 10 µM (inactive) | > 10 µM (inactive) | > 10 µM (inactive) | > 10 µM (inactive) | > 10 µM (inactive) | > 10 µM (inactive) | > 10 µM (inactive) | > 10 µM (inactive)
7 | O=C(Cc1ccccc1)NNc1nc(NNC(=O)c2ccncc2)nc(Nc2ccccc2)n1 | > 10 µM (inactive) | > 10 | > 10 µM (inactive) | > 10 µM (inactive) | > 10 µM (inactive) | – | > 10 µM (inactive) | > 10 µM (inactive) | – | > 10 µM (inactive) | – | > 10 µM (inactive) | > 10 µM (inactive) | – | > 10 µM (inactive) | > 10 µM (inactive) | > 10 µM (inactive) | > 10 µM (inactive) | > 10 µM (inactive)
8 | COC(=O)c1c(C#N)[nH]c(-c2ccsc2)c1C(=O)OC | > 100 µM (inactive) | – | > 100 µM (inactive) | – | > 100 µM (inactive) | > 100 µM (inactive) | > 100 µM (inactive) | > 100 µM (inactive) | > 100 µM (inactive) | > 100 µM (inactive) | > 100 µM (inactive) | > 100 µM (inactive) | > 100 µM (inactive) | > 100 µM (inactive) | > 100 µM (inactive) | 51.6 µM (inactive) | > 100 µM (inactive) | > 100 µM (inactive) | > 100 µM (inactive)
9 | Cc1nnc(N)nc1/C=C/c1c(O)ccc2ccccc12 | 44.4 µM (inactive) | 17.3 | 13.7 µM (inactive) | 24.5 µM (inactive) | 32.4 µM (inactive) | – | 32.8 µM (inactive) | 22.5 µM (inactive) | 30.8 µM (inactive) | 26.2 µM (inactive) | 18.6 µM (inactive) | 19.4 µM (inactive) | 37.5 µM (inactive) | 31.6 µM (inactive) | 44.4 µM (inactive) | 21.3 µM (inactive) | 13.9 µM (inactive) | 52.8 µM (inactive) | 33.9 µM (inactive)
10 | COc1cc(OCc2nc3cc(C(F)(F)F)ccc3nc2-c2ccccc2)cc(OC)c1OC | 81.5 µM (inactive) | > 100 | > 100 µM (inactive) | > 100 µM (inactive) | 96.2 µM (inactive) | > 100 µM (inactive) | 56.4 µM (inactive) | 8.75 µM (inactive) | 94 µM (inactive) | 55.6 µM (inactive) | 47.3 µM (inactive) | 45.4 µM (inactive) | – | > 100 µM (inactive) | > 100 µM (inactive) | > 100 µM (inactive) | 91.4 µM (inactive) | 86.9 µM (inactive) | –
11 | Nc1ccc(-c2nc3ccccc3s2)cc1F | 23.6 µM (inactive) | 33.2 | < 0.01 µM (active) | – | 22.6 µM (inactive) | 18.5 µM (inactive) | < 0.01 µM (active) | 10.8 µM (inactive) | 15.5 µM (inactive) | 29.1 µM (inactive) | 25.8 µM (inactive) | 26.8 µM (inactive) | 27.7 µM (inactive) | 42.3 µM (inactive) | 20.9 µM (inactive) | 45.4 µM (inactive) | 2.59 µM (inactive) | 30.2 µM (inactive) | 30.7 µM (inactive)
12 | CC(=O)NCC1(c2ccccc2)CCN(CC2COc3ccccc3O2)CC1 (configuration not stated) [ACOXATRINE] | > 100 µM (inactive) | > 100 | > 100 µM (inactive) | > 100 µM (inactive) | > 100 µM (inactive) | > 100 µM (inactive) | > 100 µM (inactive) | > 100 µM (inactive) | > 100 µM (inactive) | > 100 µM (inactive) | > 100 µM (inactive) | > 100 µM (inactive) | > 100 µM (inactive) | > 100 µM (inactive) | > 100 µM (inactive) | – | > 100 µM (inactive) | > 100 µM (inactive) | > 100 µM (inactive)
